Patent publication US10125138B2, “Triazolotriazinone derivatives having activity a s herbicides” (Syngenta Participations AG, priority 2015, dated 2018)

Experiments:
Format in all cases: in vivo
Conditions in all cases: 1000 g/h, evaluated after 13 days, five point scale
[1] = system: Echinochloa crus-galli (ECHCG); assay: Pre-emergence glasshouse herbicide test, Echinochloa crus-galli
[2] = system: Lolium perenne (LOLPE); assay: Post-emergence glasshouse herbicide test, Lolium perenne
[3] = system: Lolium perenne (LOLPE); assay: Pre-emergence glasshouse herbicide test, Lolium perenne
[4] = system: Solanum nigrum (SOLNI); assay: Pre-emergence glasshouse herbicide test, Solanum nigrum
Outline: (§1)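 Post-emergence plants (8 days old) or pre-emergence pots (1 day after sowing) were treated with a 1000 g/h spray and grown on under glasshouse control for 13 days. Percentage damage was then assessed and banded 1-5 (5=80-100%).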

[5] = system: Ipomoea hederacea (IPOHE); assay: Pre-emergence glasshouse herbicide test, Ipomoea hederacea
[6] = system: Amaranthus retoflexus (AMARE); assay: Post-emergence glasshouse herbicide test, Amaranthus retoflexus
[7] = system: Amaranthus retoflexus (AMARE); assay: Pre-emergence glasshouse herbicide test, Amaranthus retoflexus
[8] = system: Setaria faberi (SETFA); assay: Post-emergence glasshouse herbicide test, Setaria faberi
[9] = system: Setaria faberi (SETFA); assay: Pre-emergence glasshouse herbicide test, Setaria faberi
[10] = system: Ipomoea hederacea (IPOHE); assay: Post-emergence glasshouse herbicide test, Ipomoea hederacea
[11] = system: Solanum nigrum (SOLNI); assay: Post-emergence glasshouse herbicide test, Solanum nigrum
Outline: as §1

[12] = system: Echinochloa crus-galli (ECHCG); assay: Post-emergence glasshouse herbicide test, Echinochloa crus-galli

Row | Structure (SMILES) | percentage damage caused to the plant, PRE Application ECHCG [1] | percentage damage caused to the plant, POST Application LOLPE [2] | percentage damage caused to the plant, PRE Application LOLPE [3] | percentage damage caused to the plant, PRE Application SOLNI [4] | percentage damage caused to the plant, PRE Application IPOHE [5] | percentage damage caused to the plant, POST Application AMARE [6] | percentage damage caused to the plant, PRE Application AMARE [7] | percentage damage caused to the plant, POST Application SETFA [8] | percentage damage caused to the plant, PRE Application SETFA [9] | percentage damage caused to the plant, POST Application IPOHE [10] | percentage damage caused to the plant, POST Application SOLNI [11] | percentage damage caused to the plant, POST Application ECHCG [12]
1 | CCn1nnnc1NC(=O)c1nn2cnn(-c3ccc(C)cc3C)c2nc1=O [Compound 1.045] | 5 (5=80-100%) | 5 (5=80-100%) | 5 (5=80-100%) | 5 (5=80-100%) | 5 (5=80-100%) | 5 (5=80-100%) | 5 (5=80-100%) | 5 (5=80-100%) | 4 (4=60-79%) | 5 (5=80-100%) | 5 (5=80-100%) | 5 (5=80-100%)
2 | Cn1ncnc1NC(=O)c1nn2cnn(-c3ccc(F)cc3)c2nc1=O [Compound 2.001] | 5 (5=80-100%) | 4 (4=60-79%) | 3 (3=40-59%) | 5 (5=80-100%) | 4 (4=60-79%) | 5 (5=80-100%) | 5 (5=80-100%) | 5 (5=80-100%) | 5 (5=80-100%) | 5 (5=80-100%) | 5 (5=80-100%) | 4 (4=60-79%)
3 | Cn1cnnc1NC(=O)c1nn2cnn(-c3ccc(F)cc3)c2nc1=O [Compound 3.001] | 1 (1=0-19%) | 1 (1=0-19%) | 1 (1=0-19%) | 1 (1=0-19%) | 1 (1=0-19%) | 3 (3=40-59%) | 3 (3=40-59%) | 1 (1=0-19%) | 1 (1=0-19%) | 1 (1=0-19%) | 5 (5=80-100%) | 1 (1=0-19%)
4 | O=C1CCCC(=O)C1C(=O)c1nn2cnn(-c3ccc(F)cc3)c2nc1=O [Compound 4.002] | 5 (5=80-100%) | 5 (5=80-100%) | 4 (4=60-79%) | 5 (5=80-100%) | 5 (5=80-100%) | 5 (5=80-100%) | 5 (5=80-100%) | 5 (5=80-100%) | 5 (5=80-100%) | 5 (5=80-100%) | 5 (5=80-100%) | 5 (5=80-100%)
5 | COc1cccc(-n2ncn3nc(C(=O)C4C(=O)CCCC4=O)c(=O)nc23)c1 [Compound 4.010] | 5 (5=80-100%) | 4 (4=60-79%) | 5 (5=80-100%) | 5 (5=80-100%) | 5 (5=80-100%) | 5 (5=80-100%) | 5 (5=80-100%) | 5 (5=80-100%) | 5 (5=80-100%) | 5 (5=80-100%) | 5 (5=80-100%) | 5 (5=80-100%)
